{"source": "patent US7011839B2", "about": "“Otic microbial combination for treatment of animals with ruptured tympanic membrane” (Baya Corporation, priority 2000, dated 2006)", "assay_in_all_cases": "MIC of each active ingredient (NCCLS agar plates)", "format_in_all_cases": "cell-based", "key": {"[1]": {"system": "common dermal (otic) pathogens", "procedure": "(§1) An in vitro microbiology study of the combination of the Enrofloxacin (quinolone) and sulfadiazine was conducted on multiple canine otic pathogens. The study was conducted under the National Committee for Clinical Laboratory Standards (NCCLS) guidelines employing ATCC control organisms for each agar plate tested. Initially, minimum inhibitory concentrations (MICs) were established for each active ingredient."}, "Malassezia": {"system": "Malassezia", "conditions": "at the concentrations tested", "procedure": "as §1"}, "Candida": {"system": "Candida", "conditions": "at the concentrations tested", "procedure": "as §1"}}, "data": [{"smiles": "CCN1CCN(c2cc3c(cc2F)c(=O)c(C(=O)O)cn3C2CC2)CC1", "note": "[Enrofloxacin]", "values": [{"measurement": "Activity on common dermal (otic) pathogens, based on MICs", "setting": "[1]", "result": "active"}, {"measurement": "Effectiveness on Malassezia", "setting": "Malassezia", "result": "not effective"}, {"measurement": "Effectiveness on Candida", "setting": "Candida", "result": "not effective"}]}]}
